Laboratory results as given in ChEMBL document CHEMBL4840344, “Discovery of 1,8-naphthalidine derivatives as potent anti-hepatic fibrosis agents via repressing PI3K/AKT/Smad and JAK2/STAT3 pathways” (Bioorg Med Chem, 2021).
Calls of active or inactive are those of the source. The rule behind the calls is not given here.

How the values were obtained:
COL1A1 promoter [1] = test: Inhibition of COL1A1 promotor activity in human LX2 cells at 20 uM incubated for 24 hrs by luciferase reporter gene assay; type: cell-based
COL1A1 promoter [2] = test: Inhibition of COL1A1 promotor activity in human LX2 cells at 50 uM incubated for 24 hrs by luciferase reporter gene assay; type: cell-based
[3] = Cytotoxicity against human LX2 cells assessed as cell death incubated for 24 hrs by MTT assay; type: cell-based, LX-2

Row | SMILES | inhibition (COL1A1 promoter [1]) | inhibition (COL1A1 promoter [2]) | CC50 at 24 h [3] [µM]
1 | Cc1cc(OCCCCCCC[n+]2ccccc2)ccc1-n1cc(C(=O)Nc2cc(F)cc(F)c2)c(=O)c2ccc(N(C)C)nc21 | inactive | inactive | –
2 | Cc1cc(OCCCCCCC[N+]2(C)CCCCC2)ccc1-n1cc(C(=O)Nc2cc(F)cc(F)c2)c(=O)c2ccc(N(C)C)nc21 | inactive | inactive | < 20
3 | CN(C)c1ccc2c(=O)c(C(=O)Nc3cc(F)cc(F)c3)cn(-c3ccc(OCCCCCCC[N+]45CCN(CC4)CC5)cc3Cl)c2n1 | 40.1% | 80% | 76.9
4 | Cc1cc(OCCCCCCC[N+]23CCN(CC2)CC3)cc(-n2cc(C(=O)Nc3cc(F)cc(F)c3)c(=O)c3ccc(N(C)C)nc32)c1 | 10.3% | 5.52% | –
5 | CN(C)c1ccc2c(=O)c(C(=O)Nc3cc(F)cc(F)c3)cn(-c3ccc(OCCCCCCC[n+]4ccccc4)c(Cl)c3)c2n1 | – | 21.4% | –
6 | CC[N+]1(CCCCCCCOc2ccc(-n3cc(C(=O)Nc4cc(F)cc(F)c4)c(=O)c4ccc(N(C)C)nc43)cc2Cl)CCCC1 | – | 23.5% | –
7 | CN(C)c1ccc2c(=O)c(C(=O)Nc3cc(F)cc(F)c3)cn(-c3ccc(OCCCCCCC[n+]4ccccc4)cc3F)c2n1 | 15.4% | inactive | < 20
8 | CN1CC[N+](C)(CCCCCCCOc2ccc(-n3cc(C(=O)Nc4cc(F)cc(F)c4)c(=O)c4ccc(N(C)C)nc43)c(F)c2)CC1 | inactive | – | –
9 | Cc1cc(OCCCCCCC[N+](C)(C)C2CCCCC2)ccc1-n1cc(C(=O)Nc2cc(F)cc(F)c2)c(=O)c2ccc(N(C)C)nc21 | inactive | inactive | –
10 | Cc1cc(-n2cc(C(=O)Nc3cc(F)cc(F)c3)c(=O)c3ccc(N(C)C)nc32)ccc1OCCCCCCC[N+]1(C)CCN(C)CC1 | 16.2% | 32% | –
11 | CN1CC[N+](C)(CCCCCCCOc2ccc(-n3cc(C(=O)Nc4cc(F)cc(F)c4)c(=O)c4ccc(N(C)C)nc43)c(Cl)c2)CC1 | inactive | inactive | < 20
12 | CN(C)c1ccc2c(=O)c(C(=O)Nc3cc(F)cc(F)c3)cn(-c3ccc(OCCCCCCC[N+]4(C)CCCCC4)c(Cl)c3)c2n1 | – | inactive | –
13 | Cc1cc(-n2cc(C(=O)Nc3cc(F)cc(F)c3)c(=O)c3ccc(N(C)C)nc32)ccc1OCCCCCCC[n+]1ccccc1 | inactive | 55% | –
14 | CN(C)c1ccc2c(=O)c(C(=O)Nc3cc(F)cc(F)c3)cn(-c3ccc(OCCCCCCC[N+]4(C)CCCC4)c(Cl)c3)c2n1 | – | 2.59% | –
15 | CN(C)c1ccc2c(=O)c(C(=O)Nc3cc(F)cc(F)c3)cn(-c3ccc(OCCCCCCC[N+](C)(C)C4CCCCC4)cc3Cl)c2n1 | inactive | inactive | –
16 | CN(C)c1ccc2c(=O)c(C(=O)Nc3cc(F)cc(F)c3)cn(-c3ccc(OCCCCCCC[N+](C)(C)C4CCCCC4)cc3F)c2n1 | inactive | inactive | –
17 | CC[N+]1(CCCCCCCOc2cc(C)cc(-n3cc(C(=O)Nc4cc(F)cc(F)c4)c(=O)c4ccc(N(C)C)nc43)c2)CCCC1 | 35.1% | 73.2% | –
18 | CN(C)c1ccc2c(=O)c(C(=O)Nc3cc(F)cc(F)c3)cn(-c3ccc(OCCCCCCC[N+]4(C)CCCC4)cc3Cl)c2n1 | inactive | inactive | < 20
19 | CN(C)c1ccc2c(=O)c(C(=O)Nc3cc(F)cc(F)c3)cn(-c3ccc(OCCCCCCC[N+]4(C)CCCCC4)cc3Cl)c2n1 | inactive | inactive | < 20
20 | CN(C)c1ccc2c(=O)c(C(=O)Nc3cc(F)cc(F)c3)cn(-c3ccc(OCCCCCCC[N+]4(C)CCCCC4)cc3F)c2n1 | inactive | inactive | < 20
21 | CC[N+]1(CCCCCCCOc2ccc(-n3cc(C(=O)Nc4cc(F)cc(F)c4)c(=O)c4ccc(N(C)C)nc43)cc2C)CCCCC1 | 19.7% | 53.4% | –
22 | CN1CC[N+](C)(CCCCCCCOc2ccc(-n3cc(C(=O)Nc4cc(F)cc(F)c4)c(=O)c4ccc(N(C)C)nc43)cc2Cl)CC1 | – | 15.4% | –
23 | Cc1cc(OCCCCCCC[N+]2(C)CCCC2)ccc1-n1cc(C(=O)Nc2cc(F)cc(F)c2)c(=O)c2ccc(N(C)C)nc21 | inactive | inactive | < 20
24 | Cc1cc(-n2cc(C(=O)Nc3cc(F)cc(F)c3)c(=O)c3ccc(N(C)C)nc32)ccc1OCCCCCCC[N+]1(C)CCCCC1 | 33% | 54.4% | –
25 | CN(C)c1ccc2c(=O)c(C(=O)Nc3cc(F)cc(F)c3)cn(-c3ccc(Cl)c(OCCCCCCC[N+]45CCN(CC4)CC5)c3)c2n1 | 8.08% | 18.7% | –
26 | CN(C)c1ccc2c(=O)c(C(=O)Nc3cc(F)cc(F)c3)cn(-c3ccc(OCCCCCCC[N+]45CCN(CC4)CC5)c(Cl)c3)c2n1 | – | 20.4% | –
27 | Cc1cc(OCCCCCCC[n+]2ccccc2)cc(-n2cc(C(=O)Nc3cc(F)cc(F)c3)c(=O)c3ccc(N(C)C)nc32)c1 | 7.7% | 61% | –

Row | SMILES | inhibition (COL1A1 promoter [1]) | inhibition (COL1A1 promoter [2]) | CC50 at 24 h [3] [µM]
28 | Cc1ccc(-n2cc(C(=O)Nc3cc(F)cc(F)c3)c(=O)c3ccc(N(C)C)nc32)cc1OCCCCCCC[N+]1(C)CCN(C)CC1 | 10.3% | 25% | –
29 | CN1CC[N+](C)(CCCCCCCOc2cc(-n3cc(C(=O)Nc4cc(F)cc(F)c4)c(=O)c4ccc(N(C)C)nc43)ccc2Cl)CC1 | 27.5% | 45.2% | –
30 | CC[N+]1(CCCCCCCOc2cc(-n3cc(C(=O)Nc4cc(F)cc(F)c4)c(=O)c4ccc(N(C)C)nc43)ccc2Cl)CCCCC1 | inactive | inactive | –
31 | Cc1ccc(-n2cc(C(=O)Nc3cc(F)cc(F)c3)c(=O)c3ccc(N(C)C)nc32)cc1OCCCCCCC[N+]12CCN(CC1)CC2 | 5.07% | 9.71% | –
32 | CN(C)c1ccc2c(=O)c(C(=O)Nc3cc(F)cc(F)c3)cn(-c3ccc(Cl)c(OCCCCCCC[N+]4(C)CCCC4)c3)c2n1 | 51% | 76.1% | 54.5
33 | Cc1cc(-n2cc(C(=O)Nc3cc(F)cc(F)c3)c(=O)c3ccc(N(C)C)nc32)ccc1OCCCCCCC[N+]12CCN(CC1)CC2 | 10.6% | 20.8% | –
34 | CC[N+]1(CCCCCCCOc2ccc(-n3cc(C(=O)Nc4cc(F)cc(F)c4)c(=O)c4ccc(N(C)C)nc43)c(Cl)c2)CCCCC1 | inactive | inactive | < 20
35 | Cc1ccc(-n2cc(C(=O)Nc3cc(F)cc(F)c3)c(=O)c3ccc(N(C)C)nc32)cc1OCCCCCCC[N+](C)(C)C1CCCCC1 | 32.3% | 61.7% | –
36 | Cc1cc(OCCCCCCC[N+]23CCN(CC2)CC3)ccc1-n1cc(C(=O)Nc2cc(F)cc(F)c2)c(=O)c2ccc(N(C)C)nc21 | inactive | inactive | < 20
37 | CC[N+]1(CCCCCCCOc2cc(-n3cc(C(=O)Nc4cc(F)cc(F)c4)c(=O)c4ccc(N(C)C)nc43)ccc2Cl)CCCC1 | 46% | 96.4% | 61.3
38 | CC[N+]1(CCCCCCCOc2ccc(-n3cc(C(=O)Nc4cc(F)cc(F)c4)c(=O)c4ccc(N(C)C)nc43)c(C)c2)CCCCC1 | inactive | inactive | < 20
39 | Cc1cc(OCCCCCCC[N+]2(C)CCCC2)cc(-n2cc(C(=O)Nc3cc(F)cc(F)c3)c(=O)c3ccc(N(C)C)nc32)c1 | 4.32% | 35.4% | –
40 | Cc1cc(-n2cc(C(=O)Nc3cc(F)cc(F)c3)c(=O)c3ccc(N(C)C)nc32)ccc1OCCCCCCC[N+]1(C)CCCC1 | 26.1% | 35.9% | –
41 | Cc1cc(OCCCCCCC[N+](C)(C)C2CCCCC2)cc(-n2cc(C(=O)Nc3cc(F)cc(F)c3)c(=O)c3ccc(N(C)C)nc32)c1 | 52.5% | 89.1% | 61.8
42 | CC[N+]1(CCCCCCCOc2ccc(-n3cc(C(=O)Nc4cc(F)cc(F)c4)c(=O)c4ccc(N(C)C)nc43)c(Cl)c2)CCCC1 | inactive | inactive | < 20
43 | Cc1ccc(-n2cc(C(=O)Nc3cc(F)cc(F)c3)c(=O)c3ccc(N(C)C)nc32)cc1OCCCCCCC[n+]1ccccc1 | 39.7% | 22.2% | –
44 | CC[N+]1(CCCCCCCOc2ccc(-n3cc(C(=O)Nc4cc(F)cc(F)c4)c(=O)c4ccc(N(C)C)nc43)c(F)c2)CCCC1 | inactive | inactive | < 20
45 | CN(C)c1ccc2c(=O)c(C(=O)Nc3cc(F)cc(F)c3)cn(-c3ccc(Cl)c(OCCCCCCC[N+]4(C)CCCCC4)c3)c2n1 | 57.3% | 90.5% | 72.6
46 | Cc1ccc(-n2cc(C(=O)Nc3cc(F)cc(F)c3)c(=O)c3ccc(N(C)C)nc32)cc1OCCCCCCC[N+]1(C)CCCCC1 | 23.4% | 45.1% | –
47 | Cc1cc(OCCCCCCC[N+]2(C)CCN(C)CC2)cc(-n2cc(C(=O)Nc3cc(F)cc(F)c3)c(=O)c3ccc(N(C)C)nc32)c1 | 2.8% | 38.2% | –
48 | O=C(O[C@@H]1Cc2c(O)cc(O)cc2O[C@@H]1c1cc(O)c(O)c(O)c1)c1cc(O)c(O)c(O)c1 [EPIGALOCATECHIN GALLATE] | 19.2% | 32.2% | > 100
49 | CN(C)c1ccc2c(=O)c(C(=O)Nc3cc(F)cc(F)c3)cn(-c3ccc(OCCCCCCC[N+]45CCN(CC4)CC5)cc3F)c2n1 | 9.02% | 42.4% | –
50 | CC[N+]1(CCCCCCCOc2ccc(-n3cc(C(=O)Nc4cc(F)cc(F)c4)c(=O)c4ccc(N(C)C)nc43)cc2Cl)CCCCC1 | 14.3% | 50.4% | –
51 | CC[N+]1(CCCCCCCOc2ccc(-n3cc(C(=O)Nc4cc(F)cc(F)c4)c(=O)c4ccc(N(C)C)nc43)c(F)c2)CCCCC1 | inactive | inactive | < 20
52 | Cc1ccc(-n2cc(C(=O)Nc3cc(F)cc(F)c3)c(=O)c3ccc(N(C)C)nc32)cc1OCCCCCCC[N+]1(C)CCCC1 | 12.7% | 55.9% | –
53 | CN(C)c1ccc2c(=O)c(C(=O)Nc3cc(F)cc(F)c3)cn(-c3ccc(OCCCCCCC[n+]4ccccc4)cc3Cl)c2n1 | inactive | inactive | –
